In patent US11478466B2, “Small molecule promoting osteoblast differentiation” (Cornell University, priority 2019, dated 2022):
Read-outs that look alike come from different tables or passages of the source.

Experiments:
[1] = system: alkaline phosphatase (ALP); experiment: cells; conditions: Mus musculus; for activation at 10 µM: C2C12, 96 h; for EC50: C2C12
Excerpt: (§1) To identify small-molecule activators of osteoblast differentiation, we measured ALP activity using a fluorescent emission assay as a reporter for enzymatic digestion of ALP substrate in lysates derived from C2C12 myoblasts. […] Therefore, before screening, the assay was calibrated using recombinant human BMP4 protein as a positive control. Compounds were robotically deposited onto 384-well plates and then overlaid by C2C12 cells for a 4-day culture period, followed by lysis and fluorescent substrate assays (FIG. 1A; Table 1). To ensure uniformity, C2C12 cells were maintained in normal culture medium containing 10% fetal bovine serum, and lysis and substrate addition achieved using a microplate multidrop device. The primary screen (Table 2) encompassed greater than 47,000 small molecules tested at a final concentration of 10 μM.
(§2) For the primary screen, library compounds were distributed onto 384-well microplates (Greiner Bio-One 781091) at a final concentration of 10 μM in culture medium using a Perkin Elmer Janus automated workstation and WinPrep Version 4.8.3.315. Positive (rhBMP4, 1 ng/ml, R&D Systems) and negative controls (DMSO, 0.2%) were manually added to each plate by multichannel pipet. C2C12 cells were seeded onto compounds and controls at a density of 2000/well using a Thermo Multidrop Combi reagent dispenser and cultured for 4 days at 37° C., 5% CO2. Culture medium was aspirated using a BioTek EL406 plate washer and cells were lysed in RIPA buffer (Millipore 20-188) at ambient temperature for 10 minutes. 10 μl fluorescent alkaline phosphatase substrate (AttoPhos, Promega S1000) was added to lysates and incubated an additional 10 minutes before measuring the fluorescence (Excitation 450 nm/Emission 580 nm) on a BioTek Synergy Neo2 stacking microplate reader. Plates were processed and relative fluorescence raw values measured in stacks of 10-20. The data were processed using Collaborative Drug Discovery web-based software (CDD Vault) to determine Z score calculated on DMSO control wells and percent activation normalized against positive and negative controls (NPA). Cherry-picked hit candidates were re-tested in concentration response experiments, from which 4 candidates were chosen and purchased for further testing from either ChemBridge or Enamine, based on availability.
(§3) We also purchased a library of 154 structural chemical analogs assembled by ChemBridge Corp. from available screening library compounds.

[2] = system: alkaline phosphatase (ALP); conditions: for RFU Score (10 μM): 154-analog library, C2C12, duplicate; for RFU Score Threshold ≥ 800 / Fluorescence Z Score Threshold ≥ 10 / NPA Score Threshold ≥ 5.0 (normalized percent activation): primary screen, C2C12, 4 days; for RFU Score (10 μM) / RFU Score Threshold ≥ 800 / Fluorescence Z Score Threshold ≥ 10 / NPA Score Threshold ≥ 5.0 (normalized percent activation): 10 μM; for RFU Score Threshold ≥ 800: Ex 450/Em 580 nm, rank in brackets not taken; for Fluorescence Z Score Threshold ≥ 10: Z score on DMSO control wells; for NPA Score Threshold ≥ 5.0 (normalized percent activation): normalized against rhBMP4 positive and DMSO negative controls; for Fluo. Z Score: SAR of library and proprietary analogs, AttoPhos assay, C2C12
Excerpt: as §1, §2, §3

SMILES | activation at 10 µM [1] [%] | RFU Score (10 μM) [2] | other results
Cc1cc(C)c2[nH]c(=O)c(C3CC(=O)Nc4[nH]nc(C(=O)O)c43)cc2c1 (centres unmarked) [RU-0424541] | 12.9 | 646 | 
CCNC(=O)[C@@H]1CCCN1Cc1cc2cc(C)cc(C)c2[nH]c1=O [RU-0424473] | 6.63 | 470 | 
Cc1cc(C)c2[nH]c(=O)c(CN3CCC(O)(CN(C)C)C3)cc2c1 (centres unmarked) [RU-0424500] | 8.52 | 523 | 
Cc1cccc(-c2ncc(CN3CCCC(Cn4ccnc4C)C3)cn2)c1 (centres unmarked) [RU-0261573] |  |  | RFU Score Threshold ≥ 800 [2]: 857 (21); Fluorescence Z Score Threshold ≥ 10 [2]: 10.31 (24); NPA Score Threshold ≥ 5.0 (normalized percent activation) [2]: Below Threshold
Cc1cc(C)c2[nH]c(=O)c(CN(Cc3nccn3C)C3CC3)cc2c1 [RU-0424451] | 0.82 | 305 | 
COc1ccc(-c2[nH]cnc2-c2ccccc2)cc1CN(C)C [RU-0231652] | 0.62 | 299 | 
Cc1cc(C)c2[nH]c(=O)c(CN3CCN(Cc4noc(C)n4)CC3)cc2c1 [RU-0424525] | 9.94 | 563 | 
O=C(NCc1nc(-c2cnccn2)n[nH]1)c1[nH]cnc1-c1ccccc1 [RU-0424519] | 9.84 | 561 | 
Cc1cc(C)c2[nH]c(=O)c(CN(C)C(C)C(=O)N(C)C)cc2c1 (centres unmarked) [RU-0424508] | 7.85 | 504 | 
Cc1cc(C)c2[nH]c(=O)c(-c3nccn3[C@@H]3CS(=O)(=O)C[C@H]3O)cc2c1 [RU-0424461] | 4.15 | 399 | 
CCc1ncc2c(n1)CN(C(=O)c1[nH]cnc1-c1ccccc1)C2 [RU-0237095] | 6.04 | 453 | 
CCN(C)Cc1cc2n(n1)CCN(C(=O)c1[nH]cnc1-c1ccccc1)C2 [RU-0424554] | 4.5 | 409 | 
Cc1cc(C)c2[nH]c(=O)c(-c3c(-c4ccccc4)ncn3CCCO)cc2c1 [RU-0220396] |  |  | EC50 [1]: 2.63 µM; Fluo. Z Score [2]: −0.3 ± 0.20
Cc1cc(C)c2[nH]c(=O)c(CN(C)CCc3cnn(C)c3)cc2c1 [RU-0424515] | 1.16 | 314 | 
O=C(O)C1CN(C(=O)c2[nH]cnc2-c2ccccc2)CCN1 (centres unmarked) [RU-0424486] | 5.51 | 438 | 
O=C(O)CNc1cc(-c2[nH]cnc2-c2ccccc2)c2cc[nH]c2n1 [RU-0424497] | 5.93 | 450 | 
O=S(=O)(Nc1ncc(-c2[nH]cnc2-c2ccccc2)cn1)c1ccccc1 [RU-0424538] | 8.87 | 533 | 
O=C(c1[nH]cnc1-c1ccccc1)N1CCC(O)(CO)CC1 [RU-0424460] | 5.19 | 429 | 
O=C(c1[nH]cnc1-c1ccccc1)N(Cc1cocn1)Cc1cocn1 [RU-0424524] | 9.42 | 549 | 
COc1cc2c(cc1O)NC(=O)CC2c1cc2cc(C)cc(C)c2[nH]c1=O (centres unmarked) [RU-0424557] | 5.24 | 430 | 
Cc1cc(C)c2[nH]c(=O)c(-c3c(-c4ccccc4)ncn3C3CCNC3)cc2c1 (centres unmarked) [RU-0266582] |  |  | EC50 [1]: 1.42 µM; Fluo. Z Score [2]: 0.48 ± 1.10
O=C(N[C@H]1CC[C@H](n2cnnc2)CC1)c1[nH]cnc1-c1ccccc1 [RU-0261757] | 7.99 | 508 | 
CN(C)CCNc1cc(-c2ccc(Cl)cc2F)c2cc[nH]c2n1 [RU-0242925] |  |  | activation at 10 µM ([1]; read-out: NPA Score Threshold ≥ 5.0 (normalized percent activation)): 5.73%; RFU Score Threshold ≥ 800 [2]: Below Threshold; Fluorescence Z Score Threshold ≥ 10 [2]: Below Threshold
COc1ccc(-c2n[nH]cc2-c2[nH]cnc2-c2ccccc2)cc1 [RU-0237450] | 6.49 | 466 | 
Cc1nc(CCN)cc(N2CCCC2c2nonc2C)n1 (centres unmarked) [RU-0250475] |  |  | RFU Score Threshold ≥ 800 [2]: 879 (19); Fluorescence Z Score Threshold ≥ 10 [2]: Below Threshold; NPA Score Threshold ≥ 5.0 (normalized percent activation) [2]: Below Threshold
